# Reference: US20040006103A1, “Use of chloroquine, hydroxychloroquine and 4 amino-quinolinic derivatives to obtain a drug for the anti retroviral therapy, active towards HIV sensitive strains and towards HIV strains which are resistant to both nucleosidic and non-nucleosidic reverse transcriptase inhibitors and to proteases …” (VALPHARMA S.A., priority 2002, published 2004)
# Read-outs that look alike come from different tables or passages of the source.
# Columns and labels:
# [1] = tested on: HIV-1 clinical isolated, characterised by mutations on the protease gene inducing geno-phenotypic resistance to NFV; test: p24 production susceptibility test (ACTG protocol), Table 10, PBMC; type: cell-based; conditions: for S.I. CQ: I.C.50/E.C.50; for Fen. CQ (fold): ratio to HIV-IIIB; for EC50: Human immunodeficiency virus 1, PBMC, read-out: E.C.50 CQ
# Excerpt: (§1) For the phenotype of the nucleosidic, non-nucleosidic and proteases inhibitors was utilised a method which consider the use of human PBMC and the protocol standardised by the AIDS Clinical Trials Group, after verifying the genotype by sequence analysis.
# (§2) In order to assay in vitro the susceptibility to chloroquine and hydroxychloroquine of the viral strains, it was used the protocol of the ACTG which is characterised by the measure, of the production of antigen p24 in strongly infected cells.
# (§3) The susceptibility of the viral strains to chemotherapics was determined in cell cultures, prepared in 96 wells microplates, using, for the infection, 0.1 MOI.
# (§4) The supernatant of the infected cultures (either in absence or in presence of different concentrations of chemotherapic) were tested for the production of p24 after 7 days, using an ELISA test which is commercially available.
# (§5) The concentrations of chloroquine and hydroxychloroquine tested ranged from 0.5 to 15 uM. At the same time non-infected cells were incubated with concentrations of chloroquine and hydroxychloroquine ranging from 0 to 50 uM to evaluate the toxicity of the compound.
# (§6) After 4 day from the infection, half the cellular medium was replaced with a medium containing the corresponding dilution of chloroquine and hydroxychloroquine. The percentage of inhibition of the HIV replication, induced by chloroquine and hydroxychloroquine, was determined, after 7 day from the infection, comparing the levels of p24 of this cultures and that of the control, infected and not treated with chloroquine and hydroxychloroquine.
# (§7) Therefore, the E.C.50 of chloroquine and hydroxychloroquine expresses the concentration of chemotherapic that inhibits the 50% of production of p24 and the values were calculated using linear and non linear regression analysis (the significativity for the non linear regression was R^2>0.95).
# (§8) In the same experimental conditions and in the same day, but with similar concentrations of chloroquine and hydroxychloroquine, it was evaluated the vitality of the infect cell cultures, and this was expressed as I.C.50.
# (§9) I.C.50 (Inhibitory Concentration) indicates the concentration of the chemotherapic agent inhibiting the vitality of the cell cultures at a rate of 50%, when there is not infection.
# [2] = tested on: HIV-1 clinical isolated, characterised by mutations in the RT gene inducing geno-phenotypic resistance to ABC; test: p24 production susceptibility test (ACTG protocol), Table 5; type: cell-based; conditions: for EC50: Human immunodeficiency virus 1, PBMC, read-out: E.C.50 CQ; for S.I. CQ / Fen. CQ (fold): PBMC; for S.I. CQ: I.C.50/E.C.50; for Fen. CQ (fold): ratio to HIV-IIIB
# Excerpt: as §1, §2, §3, §4, §5, §6, §7, §8, §9
# [3] = tested on: HIV clinical isolated, characterised by mutations in the RT gene inducing geno-phenotypic resistance to ddI; test: p24 production susceptibility test (ACTG protocol), Table 2; type: cell-based, HIV-1; conditions: for EC50: Human immunodeficiency virus 1, PBMC, read-out: E.C.50 CQ; for S.I. CQ / Fen. CQ (fold): PBMC; for S.I. CQ: I.C.50/E.C.50; for Fen. CQ (fold): ratio to HIV-IIIB
# Excerpt: as §1, §2, §3, §4, §5, §6, §7, §8, §9
# [4] = tested on: HIV clinical isolated, characterised by mutations in the RT gene inducing geno-phenotypic resistance to AZT; test: p24 production susceptibility test (ACTG protocol), Table 1; type: cell-based, HIV-1; conditions: for EC50: Human immunodeficiency virus 1, PBMC; for S.I. CQ: I.C.50/E.C.50; for CQ (fold): ratio to HIV-IIIB
# Excerpt: as §1, §2, §3, §4, §5, §6, §7, §8, §9
# [5] = tested on: HIV-1 strains geno-phenotypically resistant to NVP; test: p24 production susceptibility test, Table 6, MT-2 cells; type: cell-based; conditions: for EC50: Human immunodeficiency virus 1, MT2, MT-2, read-out: E.C.50 CQ; for S.I. CQ / Fen. CQ (fold): MT-2; for S.I. CQ: I.C.50/E.C.50; for Fen. CQ (fold): ratio to HIV-IIIB
# Excerpt: as §1, §2, §3, §4, §5, §6, §7, §8, §9
# [6] = tested on: viruses resistant to both reverse transcriptase and protease inhibitors; test: p24 production susceptibility test, summary for resistant viruses; type: cell-based, HIV-1; conditions: Human immunodeficiency virus 1, range
# Method: as §2, §3
# The supernatant of the infected cultures (either in absence or in presence of different concentrations of chemotherapic) were tested for the production of p24 after 7 days, using an ELISA test which is commercially available. […]
# as §6, §7
# [7] = Gen. K65R S68G F77L Y115F Q151M M184V
# [8] = Gen. M41L D67N M184V L210W T215Y
# [9] = Gen M4IL M184V L210W R211KL 214F T215Y
# [10] = PBMC, Gen. D67N K70R T215F K219Q
# [11] = PBMC, Gen. D 67 Ns K 70N T215F K219Q
# [12] = PBMC, Gen. M41I M184V L210W R221K T215Y
# [13] = PBMC, Gen. M41L D67N K70RM 184V T215F
# [14] = PBMC, Gen. M41LD 76N K70R T215Y
smiles,measurement,setting,value
"CCN(CC)CCCC(C)Nc1ccnc2cc(Cl)ccc12 (stereo not shown) [CQ, chloroquine]",S.I. CQ,[1]; Gen. D30N A71V,5.5
same,Fen. CQ (fold),[1]; Gen. D30N A71V,1X fold
same,S.I. CQ,[1]; Gen. D30N M46V A71V,4
same,Fen. CQ (fold),[1]; Gen. D30N M46V A71V,1.2X fold
same,S.I. CQ,[1]; Gen. G48V V92A,3.2
same,Fen. CQ (fold),[1]; Gen. G48V V92A,1.6X fold
same,S.I. CQ,[1]; Gen. V82F L90M,3.4
same,Fen. CQ (fold),[1]; Gen. V82F L90M,1.5X fold
same,EC50,[1]; Gen. D30N A71V,1800 nM
same,EC50,[1]; Gen. D30N M46V A71V,2200 nM
same,EC50,[1]; Gen. G48V V92A,3000 nM
same,EC50,[1]; Gen. V82F L90M,2800 nM
same,EC50,[2]; Gen. K65R L74V M184V,1800 nM
same,EC50,[2]; [7],2500 nM
same,EC50,[2]; Gen. L74V M184F,1800 nM
same,EC50,[2]; Gen. L74V Y115F M184V,2200 nM
same,EC50,[2]; [8],2200 nM
same,S.I. CQ,[2]; Gen. K65R L74V M184V,5.5
same,Fen. CQ (fold),[2]; Gen. K65R L74V M184V,1.2X fold
same,S.I. CQ,[2]; [7],3.6
same,Fen. CQ (fold),[2]; [7],1.6X fold
same,S.I. CQ,[2]; Gen. L74V M184F,5.5
same,Fen. CQ (fold),[2]; Gen. L74V M184F,1.2X fold
same,S.I. CQ,[2]; Gen. L74V Y115F M184V,4
same,Fen. CQ (fold),[2]; Gen. L74V Y115F M184V,1.2X fold
same,S.I. CQ,[2]; [8],4
same,Fen. CQ (fold),[2]; [8],1.4X fold
same,EC50,[3]; Gen D67N K70R M184V T215Y,2500 nM
same,EC50,[3]; Gen D67N K70R T215F K70R,3000 nM
same,EC50,[3]; Gen K70R T215F K219Q,1800 nM
same,EC50,[3]; [9],2000 nM
same,EC50,[3]; Gen M41I T215F,2000 nM
same,EC50,[3]; Gen M41L D67N K70R M184V T215Y,2500 nM
same,EC50,[3]; Gen M41L D67N K70R T215Y,3000 nM
same,S.I. CQ,[3]; Gen D67N K70R M184V T215Y,4.5
same,Fen. CQ (fold),[3]; Gen D67N K70R M184V T215Y,1.5X fold
same,S.I. CQ,[3]; Gen D67N K70R T215F K70R,3
same,Fen. CQ (fold),[3]; Gen D67N K70R T215F K70R,1.3X fold
same,S.I. CQ,[3]; Gen K70R T215F K219Q,5.5
same,Fen. CQ (fold),[3]; Gen K70R T215F K219Q,0.7X fold
same,S.I. CQ,[3]; [9],4.5
same,Fen. CQ (fold),[3]; [9],1.1X fold
same,S.I. CQ,[3]; Gen M41I T215F,4
same,Fen. CQ (fold),[3]; Gen M41I T215F,1.1X fold
same,S.I. CQ,[3]; Gen M41L D67N K70R M184V T215Y,3.6
same,Fen. CQ (fold),[3]; Gen M41L D67N K70R M184V T215Y,1.3X fold
same,S.I. CQ,[3]; Gen M41L D67N K70R T215Y,3.2
same,Fen. CQ (fold),[3]; Gen M41L D67N K70R T215Y,1.2X fold
same,EC50,"[4]; PBMC, Gen. D67N K70R T215F K219Q, read-out: E.C.50 CQ",2 µM
same,EC50,"[4]; PBMC, Gen. D 67 Ns K 70N T215F K219Q, read-out: E.C.50 CQ",3 µM
same,EC50,"[4]; PBMC, Gen. K70R T215F K219Q, read-out: E.C.50 CQ",1.8 µM
same,EC50,"[4]; PBMC, Gen. M41I M184V L210W R221K T215Y, read-out: E.C.50 CQ",1.5 µM
same,EC50,"[4]; PBMC, Gen. M41I T215Y, read-out: E.C.50 CQ",2 µM
same,EC50,"[4]; PBMC, Gen. M41L D67N K70RM 184V T215F, read-out: E.C.50 CQ",2.5 µM
same,EC50,"[4]; read-out: E.C.50 CQ (uM), PBMC, Gen. M41LD 76N K70R T215Y",3 µM
same,S.I. CQ,[4]; [10],4
same,CQ (fold),[4]; [10],1.1X fold
same,S.I. CQ,[4]; [11],3
same,CQ (fold),[4]; [11],2X fold
same,S.I. CQ,"[4]; PBMC, Gen. K70R T215F K219Q",5.5
same,CQ (fold),"[4]; PBMC, Gen. K70R T215F K219Q",1.1X fold
same,S.I. CQ,[4]; [12],6
same,CQ (fold),[4]; [12],0.8X fold
same,S.I. CQ,"[4]; PBMC, Gen. M41I T215Y",4
same,CQ (fold),"[4]; PBMC, Gen. M41I T215Y",1.1X fold
same,S.I. CQ,[4]; [13],3.6
same,CQ (fold),[4]; [13],1.3X fold
same,S.I. CQ,[4]; [14],3.2
same,CQ (fold),[4]; [14],1.6X fold
same,EC50,[5]; Gen. G190E,3500 nM
same,EC50,[5]; Gen. K103N,3200 nM
same,EC50,[5]; Gen. V106A,2800 nM
same,EC50,[5]; Gen. Y181C,3800 nM
same,S.I. CQ,[5]; Gen. G190E,6
same,Fen. CQ (fold),[5]; Gen. G190E,1.9X fold
same,S.I. CQ,[5]; Gen. K103N,6.2
same,Fen. CQ (fold),[5]; Gen. K103N,1.7X fold
same,S.I. CQ,[5]; Gen. V106A,7.8
same,Fen. CQ (fold),[5]; Gen. V106A,1.5X fold
same,S.I. CQ,[5]; Gen. Y181C,6
same,Fen. CQ (fold),[5]; Gen. Y181C,2.1X fold
same,EC50,[6],1500 to 3500 nM
